Measured values reported in the kinase profiling compilation of Christmann-Franck et al. (2016).

Key:
Experiment in all cases: KINOMEscan competition binding
Details in all cases: compound 10.0 µM
AAK1 (human) = AAK1 (human) (UniProt Q2M2I8)
[1] = system: ABL1 (human), P00519 [T315I]
ACVR2B (human) = ACVR2B (human) (UniProt Q13705)
AKT1 (human) = AKT1 (human) (UniProt P31749)
AURKC (human) = AURKC (human) (UniProt Q9UQB9)
BMPR1A (human) = BMPR1A (human) (UniProt P36894)
BRSK2 (human) = BRSK2 (human) (UniProt Q8IWQ3)
CAMK2A (human) = CAMK2A (human) (UniProt Q9UQM7)
CAMKK2 (human) = CAMKK2 (human) (UniProt Q96RR4)
Sequence of CAMKK2 (human) (Q96RR4 whole entry, looked up): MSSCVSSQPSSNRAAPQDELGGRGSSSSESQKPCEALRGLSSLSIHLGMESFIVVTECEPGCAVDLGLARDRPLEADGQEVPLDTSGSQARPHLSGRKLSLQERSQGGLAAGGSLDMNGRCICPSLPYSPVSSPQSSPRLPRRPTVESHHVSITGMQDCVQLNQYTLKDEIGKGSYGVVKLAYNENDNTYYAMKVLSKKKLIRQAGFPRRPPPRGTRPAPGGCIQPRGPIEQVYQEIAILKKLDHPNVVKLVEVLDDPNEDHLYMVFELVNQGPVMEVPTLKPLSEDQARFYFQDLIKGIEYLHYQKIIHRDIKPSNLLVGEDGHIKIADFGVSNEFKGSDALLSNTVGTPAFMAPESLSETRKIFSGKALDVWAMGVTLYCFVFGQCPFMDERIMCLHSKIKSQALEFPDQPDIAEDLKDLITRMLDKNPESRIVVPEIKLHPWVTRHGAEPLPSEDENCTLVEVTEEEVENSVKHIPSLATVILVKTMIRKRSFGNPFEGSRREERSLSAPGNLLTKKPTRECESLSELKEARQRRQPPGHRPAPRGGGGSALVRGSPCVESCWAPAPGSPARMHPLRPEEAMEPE

CDK17 (human) = CDK17 (human) (UniProt Q00537)
CLK2 (human) = CLK2 (human) (UniProt P49760)
CSNK1D (human) = CSNK1D (human) (UniProt P48730)
CSNK1G1 (human) = CSNK1G1 (human) (UniProt Q9HCP0)
DDR1 (human) = DDR1 (human) (UniProt Q08345)
Sequence of DDR1 (human) (Q08345 whole entry, looked up): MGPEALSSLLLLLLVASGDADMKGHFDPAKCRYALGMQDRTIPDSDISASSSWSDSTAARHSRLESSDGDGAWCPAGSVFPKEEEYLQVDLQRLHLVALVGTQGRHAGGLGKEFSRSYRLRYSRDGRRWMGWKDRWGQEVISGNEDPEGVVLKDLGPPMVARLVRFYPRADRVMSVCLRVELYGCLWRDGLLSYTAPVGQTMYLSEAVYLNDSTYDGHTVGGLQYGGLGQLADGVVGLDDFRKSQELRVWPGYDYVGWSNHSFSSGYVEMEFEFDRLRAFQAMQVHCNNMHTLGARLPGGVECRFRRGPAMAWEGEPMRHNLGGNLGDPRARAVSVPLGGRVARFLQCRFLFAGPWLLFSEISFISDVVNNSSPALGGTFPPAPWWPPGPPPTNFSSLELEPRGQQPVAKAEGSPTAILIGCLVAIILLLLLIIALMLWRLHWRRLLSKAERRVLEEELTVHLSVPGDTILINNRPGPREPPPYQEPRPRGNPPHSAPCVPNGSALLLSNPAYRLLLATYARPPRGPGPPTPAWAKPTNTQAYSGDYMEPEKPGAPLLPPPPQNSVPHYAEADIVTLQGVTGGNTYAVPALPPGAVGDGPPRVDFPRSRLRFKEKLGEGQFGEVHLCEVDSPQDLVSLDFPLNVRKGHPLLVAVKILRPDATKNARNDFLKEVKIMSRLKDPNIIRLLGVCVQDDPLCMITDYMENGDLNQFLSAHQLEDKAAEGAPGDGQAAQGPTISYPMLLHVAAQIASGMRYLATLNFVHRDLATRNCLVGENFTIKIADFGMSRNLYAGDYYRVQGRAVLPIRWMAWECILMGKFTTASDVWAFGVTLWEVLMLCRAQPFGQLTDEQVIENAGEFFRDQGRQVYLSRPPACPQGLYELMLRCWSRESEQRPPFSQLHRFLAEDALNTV

DYRK1B (human) = DYRK1B (human) (UniProt Q9Y463)
Sequence of DYRK1B (human) (Q9Y463 whole entry, looked up): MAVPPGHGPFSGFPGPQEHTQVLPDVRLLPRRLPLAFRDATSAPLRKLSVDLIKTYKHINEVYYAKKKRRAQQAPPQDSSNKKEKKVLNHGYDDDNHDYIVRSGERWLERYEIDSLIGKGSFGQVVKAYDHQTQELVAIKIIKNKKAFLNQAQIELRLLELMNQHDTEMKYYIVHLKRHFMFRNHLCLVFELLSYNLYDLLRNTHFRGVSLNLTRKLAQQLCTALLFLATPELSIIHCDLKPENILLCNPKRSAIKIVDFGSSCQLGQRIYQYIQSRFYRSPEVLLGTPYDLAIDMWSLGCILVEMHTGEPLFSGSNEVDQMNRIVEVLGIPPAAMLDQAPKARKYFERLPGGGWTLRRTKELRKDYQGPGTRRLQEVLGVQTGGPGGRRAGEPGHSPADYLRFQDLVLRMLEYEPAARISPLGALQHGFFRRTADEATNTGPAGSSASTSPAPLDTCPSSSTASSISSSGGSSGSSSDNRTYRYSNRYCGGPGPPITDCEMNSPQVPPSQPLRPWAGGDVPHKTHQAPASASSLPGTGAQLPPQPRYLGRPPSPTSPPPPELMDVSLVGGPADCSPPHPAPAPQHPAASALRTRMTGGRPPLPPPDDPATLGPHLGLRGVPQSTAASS

[2] = system: EGFR (human), P00533 [P753S; 747-752 del]
EPHA1 (human) = EPHA1 (human) (UniProt P21709)
EPHA3 (human) = EPHA3 (human) (UniProt P29320)
[3] = system: FLT3 (human), P36888 [D835Y]
GSK3A (human) = GSK3A (human) (UniProt P49840)
IGF1R (human) = IGF1R (human) (UniProt P08069)
LATS1 (human) = LATS1 (human) (UniProt O95835)
MAP3K7 (human) = MAP3K7 (human) (UniProt O43318)
Sequence of MAP3K7 (human) (O43318 whole entry, looked up): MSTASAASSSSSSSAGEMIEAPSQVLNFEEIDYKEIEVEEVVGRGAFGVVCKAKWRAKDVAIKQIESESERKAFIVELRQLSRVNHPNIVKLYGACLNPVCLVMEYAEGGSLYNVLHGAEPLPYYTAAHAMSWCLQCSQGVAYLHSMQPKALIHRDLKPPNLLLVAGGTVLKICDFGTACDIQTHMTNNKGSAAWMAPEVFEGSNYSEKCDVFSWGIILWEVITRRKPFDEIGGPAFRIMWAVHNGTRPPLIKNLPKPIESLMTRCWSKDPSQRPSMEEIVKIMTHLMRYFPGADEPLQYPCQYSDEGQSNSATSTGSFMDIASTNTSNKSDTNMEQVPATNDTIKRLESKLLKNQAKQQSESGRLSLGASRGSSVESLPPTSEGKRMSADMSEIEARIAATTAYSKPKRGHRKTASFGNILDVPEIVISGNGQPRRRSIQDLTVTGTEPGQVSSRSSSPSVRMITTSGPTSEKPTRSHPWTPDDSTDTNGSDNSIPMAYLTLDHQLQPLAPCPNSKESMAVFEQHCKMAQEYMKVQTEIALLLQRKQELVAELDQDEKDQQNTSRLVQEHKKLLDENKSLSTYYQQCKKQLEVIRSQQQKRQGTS

MARK2 (human) = MARK2 (human) (UniProt Q7KZI7)
MINK1 (human) = MINK1 (human) (UniProt Q8N4C8)
PDPK1 (human) = PDPK1 (human) (UniProt O15530)
PIK3CA (human) = PIK3CA (human) (UniProt P42336)
PIM3 (human) = PIM3 (human) (UniProt Q86V86)
PKN1 (human) = PKN1 (human) (UniProt Q16512)
PLK4 (human) = PLK4 (human) (UniProt O00444)
PTK2 (human) = PTK2 (human) (UniProt Q05397)
RAF1 (human) = RAF1 (human) (UniProt P04049)
RIPK2 (human) = RIPK2 (human) (UniProt O43353)
RPS6KA6 KD2 (human) = RPS6KA6 KD2 (human) (UniProt Q9UK32)
STK16 (human) = STK16 (human) (UniProt O75716)
STK3 (human) = STK3 (human) (UniProt Q13188)
STK32B (human) = STK32B (human) (UniProt Q9NY57)
TEK (human) = TEK (human) (UniProt Q02763)
TLK2 (human) = TLK2 (human) (UniProt Q86UE8)
TNK1 (human) = TNK1 (human) (UniProt Q13470)
[4] = biological target: TYK2 JH1 catalytic (human) (UniProt P29597)
Sequence of TYK2 JH1 catalytic (human) (P29597 whole entry, looked up): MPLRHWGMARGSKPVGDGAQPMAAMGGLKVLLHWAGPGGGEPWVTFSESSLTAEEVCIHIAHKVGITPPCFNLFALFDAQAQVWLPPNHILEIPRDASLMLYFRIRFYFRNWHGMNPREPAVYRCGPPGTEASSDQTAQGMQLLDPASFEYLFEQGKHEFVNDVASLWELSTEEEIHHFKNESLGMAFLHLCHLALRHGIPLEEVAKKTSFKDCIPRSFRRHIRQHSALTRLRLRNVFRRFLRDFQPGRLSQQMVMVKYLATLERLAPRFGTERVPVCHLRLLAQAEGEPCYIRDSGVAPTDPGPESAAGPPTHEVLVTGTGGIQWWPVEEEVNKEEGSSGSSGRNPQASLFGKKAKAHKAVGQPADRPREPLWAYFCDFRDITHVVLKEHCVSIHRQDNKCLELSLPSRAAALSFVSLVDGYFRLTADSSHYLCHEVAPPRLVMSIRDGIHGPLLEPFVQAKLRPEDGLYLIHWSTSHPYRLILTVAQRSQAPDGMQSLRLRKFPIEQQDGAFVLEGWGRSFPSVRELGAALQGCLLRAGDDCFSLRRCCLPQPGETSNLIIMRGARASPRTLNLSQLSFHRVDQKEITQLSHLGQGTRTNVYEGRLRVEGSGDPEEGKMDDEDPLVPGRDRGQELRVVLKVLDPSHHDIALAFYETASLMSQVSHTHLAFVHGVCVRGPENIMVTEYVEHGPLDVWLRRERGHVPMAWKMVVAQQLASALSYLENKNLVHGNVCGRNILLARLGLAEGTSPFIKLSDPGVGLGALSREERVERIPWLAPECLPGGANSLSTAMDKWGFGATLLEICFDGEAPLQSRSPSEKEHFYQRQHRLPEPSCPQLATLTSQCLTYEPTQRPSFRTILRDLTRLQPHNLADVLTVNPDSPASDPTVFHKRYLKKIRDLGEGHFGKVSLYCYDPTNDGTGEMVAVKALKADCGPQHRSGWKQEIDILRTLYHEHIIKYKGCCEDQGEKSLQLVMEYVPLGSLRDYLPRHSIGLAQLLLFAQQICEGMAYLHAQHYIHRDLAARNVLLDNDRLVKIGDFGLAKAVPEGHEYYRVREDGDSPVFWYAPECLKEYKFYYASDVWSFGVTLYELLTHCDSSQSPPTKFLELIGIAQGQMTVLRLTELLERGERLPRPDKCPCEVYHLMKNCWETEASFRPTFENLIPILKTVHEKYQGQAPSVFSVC

ULK2 (human) = ULK2 (human) (UniProt Q8IYT8)

Sequence of AURKC (human) (Q9UQB9 whole entry, looked up): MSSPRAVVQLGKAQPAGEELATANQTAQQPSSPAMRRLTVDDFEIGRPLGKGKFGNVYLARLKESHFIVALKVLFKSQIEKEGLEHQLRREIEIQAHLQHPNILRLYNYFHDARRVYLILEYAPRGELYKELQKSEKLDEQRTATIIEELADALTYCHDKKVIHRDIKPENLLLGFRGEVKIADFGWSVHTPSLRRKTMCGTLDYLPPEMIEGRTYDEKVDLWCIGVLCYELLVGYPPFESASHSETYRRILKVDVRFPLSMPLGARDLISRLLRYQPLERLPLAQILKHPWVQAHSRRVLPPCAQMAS
Sequence of BMPR1A (human) (P36894 whole entry, looked up): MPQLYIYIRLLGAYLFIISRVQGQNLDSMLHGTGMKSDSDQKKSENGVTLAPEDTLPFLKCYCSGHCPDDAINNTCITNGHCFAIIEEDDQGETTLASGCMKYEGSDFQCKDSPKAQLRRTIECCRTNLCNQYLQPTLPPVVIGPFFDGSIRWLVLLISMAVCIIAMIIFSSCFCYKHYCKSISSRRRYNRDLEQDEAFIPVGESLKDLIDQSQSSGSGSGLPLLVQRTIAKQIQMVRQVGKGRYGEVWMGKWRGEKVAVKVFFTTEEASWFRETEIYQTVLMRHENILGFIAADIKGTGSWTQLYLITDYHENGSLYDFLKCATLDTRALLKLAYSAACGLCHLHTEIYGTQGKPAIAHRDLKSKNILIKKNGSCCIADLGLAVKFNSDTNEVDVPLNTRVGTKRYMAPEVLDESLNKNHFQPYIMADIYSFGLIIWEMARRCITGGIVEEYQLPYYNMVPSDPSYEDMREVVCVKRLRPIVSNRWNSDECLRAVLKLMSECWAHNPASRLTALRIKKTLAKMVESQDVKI

Structure (SMILES): CN1C(=O)c2ccccc2N(C)c2nc(NS(=O)(=O)c3ccc(N)cc3)ncc21
- kinase still bound, per cent of control (AAK1 (human)): 100%
- kinase still bound, per cent of control [1]: 97%
- kinase still bound, per cent of control (ACVR2B (human)): 100%
- kinase still bound, per cent of control (AKT1 (human)): 100%
- kinase still bound, per cent of control (AURKC (human)): 74%
- kinase still bound, per cent of control (BMPR1A (human)): 90%
- kinase still bound, per cent of control (BRSK2 (human)): 100%
- kinase still bound, per cent of control (CAMK2A (human)): 100%
- kinase still bound, per cent of control (CAMKK2 (human)): 100%
- kinase still bound, per cent of control (CDK17 (human)): 100%
- kinase still bound, per cent of control (CLK2 (human)): 100%
- kinase still bound, per cent of control (CSNK1D (human)): 82%
- kinase still bound, per cent of control (CSNK1G1 (human)): 100%
- kinase still bound, per cent of control (DDR1 (human)): 100%
- kinase still bound, per cent of control (DYRK1B (human)): 100%
- kinase still bound, per cent of control [2]: 100%
- kinase still bound, per cent of control (EPHA1 (human)): 100%
- kinase still bound, per cent of control (EPHA3 (human)): 97%
- kinase still bound, per cent of control [3]: 87%
- kinase still bound, per cent of control (GSK3A (human)): 100%
- kinase still bound, per cent of control (IGF1R (human)): 100%
- kinase still bound, per cent of control (LATS1 (human)): 74%
- kinase still bound, per cent of control (MAP3K7 (human)): 87%
- kinase still bound, per cent of control (MARK2 (human)): 100%
- kinase still bound, per cent of control (MINK1 (human)): 100%
- kinase still bound, per cent of control (PDPK1 (human)): 100%
- kinase still bound, per cent of control (PIK3CA (human)): 100%
- kinase still bound, per cent of control (PIM3 (human)): 100%
- kinase still bound, per cent of control (PKN1 (human)): 85%
- kinase still bound, per cent of control (PLK4 (human)): 97%
- kinase still bound, per cent of control (PTK2 (human)): 100%
- kinase still bound, per cent of control (RAF1 (human)): 100%
- kinase still bound, per cent of control (RIPK2 (human)): 100%
- kinase still bound, per cent of control (RPS6KA6 KD2 (human)): 96%
- kinase still bound, per cent of control (STK16 (human)): 100%
- kinase still bound, per cent of control (STK3 (human)): 87%
- kinase still bound, per cent of control (STK32B (human)): 100%
- kinase still bound, per cent of control (TEK (human)): 97%
- kinase still bound, per cent of control (TLK2 (human)): 100%
- kinase still bound, per cent of control (TNK1 (human)): 100%
- kinase still bound, per cent of control [4]: 38%
- kinase still bound, per cent of control (ULK2 (human)): 89%

Structure (SMILES): COc1cc(N2CCN(C)CC2)ccc1Nc1ncc2c(n1)Nc1ccccc1NC2=O
- kinase still bound, per cent of control (AAK1 (human)): 75%
- kinase still bound, per cent of control [1]: 46%
- kinase still bound, per cent of control (ACVR2B (human)): 52%
- kinase still bound, per cent of control (AKT1 (human)): 100%
- kinase still bound, per cent of control (AURKC (human)): 55%
- kinase still bound, per cent of control (BMPR1A (human)): 80%
- kinase still bound, per cent of control (BRSK2 (human)): 100%
- kinase still bound, per cent of control (CAMK2A (human)): 90%
- kinase still bound, per cent of control (CAMKK2 (human)): 100%
- kinase still bound, per cent of control (CDK17 (human)): 93%
- kinase still bound, per cent of control (CLK2 (human)): 95%
- kinase still bound, per cent of control (CSNK1D (human)): 42%
- kinase still bound, per cent of control (CSNK1G1 (human)): 100%
- kinase still bound, per cent of control (DDR1 (human)): 81%
- kinase still bound, per cent of control (DYRK1B (human)): 79%
- kinase still bound, per cent of control [2]: 39%
- kinase still bound, per cent of control (EPHA1 (human)): 74%
- kinase still bound, per cent of control (EPHA3 (human)): 61%
- kinase still bound, per cent of control [3]: 20%
- kinase still bound, per cent of control (GSK3A (human)): 100%
- kinase still bound, per cent of control (IGF1R (human)): 100%
- kinase still bound, per cent of control (LATS1 (human)): 90%
- kinase still bound, per cent of control (MAP3K7 (human)): 96%
- kinase still bound, per cent of control (MARK2 (human)): 100%
- kinase still bound, per cent of control (MINK1 (human)): 71%
- kinase still bound, per cent of control (PDPK1 (human)): 82%
- kinase still bound, per cent of control (PIK3CA (human)): 100%
- kinase still bound, per cent of control (PIM3 (human)): 75%
- kinase still bound, per cent of control (PKN1 (human)): 69%
- kinase still bound, per cent of control (PLK4 (human)): 2.1%
- kinase still bound, per cent of control (PTK2 (human)): 73%
- kinase still bound, per cent of control (RAF1 (human)): 89%
- kinase still bound, per cent of control (RIPK2 (human)): 100%
- kinase still bound, per cent of control (RPS6KA6 KD2 (human)): 29%
- kinase still bound, per cent of control (STK16 (human)): 100%
- kinase still bound, per cent of control (STK3 (human)): 100%
- kinase still bound, per cent of control (STK32B (human)): 93%
- kinase still bound, per cent of control (TEK (human)): 100%
- kinase still bound, per cent of control (TLK2 (human)): 100%
- kinase still bound, per cent of control (TNK1 (human)): 100%
- kinase still bound, per cent of control [4]: 66%
- kinase still bound, per cent of control (ULK2 (human)): 75%
